Activity calls are given as the source filed them. The calls are words filed in the database; no cut-off is given here. Bridge positions count the residues as written; N and C are the ends. Square brackets hold non-standard residues; d marks the D form. Peptide text beside a SMILES is read from it. ξ: configuration not given here. ξQ = NC(=O)CCC(N)C(=O)O; ξNle = CCCCC(N)C(=O)O; Aib = CC(C)(N)C(=O)O
What was measured:
Leishmania infantum [1] = experiment: Antileishmanial activity against Leishmania infantum axenic amastigotes assessed as induction of cell death after 24 hrs by propidium iodide staining based flow cytometry; type: functional
Leishmania infantum [2] = experiment: Antileishmanial activity against Leishmania infantum MCAN/ES/89/IPZ229/1/89 promastigotes assessed as induction of cell death after 24 hrs by propidium iodide staining based flow cytometry; type: functional; settings: MCAN/ES/89/IPZ229/1/89, 24 h
[3] = Cytotoxicity against human THP1 cells assessed as induction of cell death after 24 hrs by propidium iodide staining based flow cytometry; settings: THP-1 cells, read-out: LC50
Trypanothione reductase [4] = target: T1, Trypanothione reductase (Leishmania infantum, UniProt A4HSF7); experiment: Inhibition of recombinant Leishmania infantum TryR preincubated for 10 mins followed by T[S]2 substrate addition and measured after 1 hr in presence of NADPH
Trypanothione reductase [5] = target: T1, Trypanothione reductase; experiment: Inhibition of recombinant His/FLAG-tagged Leishmania infantum TryR dimerization assessed as dimer disruption after 1 hr by ELISA
Leishmania infantum [6] = experiment: Antileishmanial activity against Leishmania infantum axenic amastigotes assessed as induction of cell death at 25 uM after 24 hrs by propidium iodide staining based flow cytometry; type: functional
Leishmania infantum [7] = experiment: Antileishmanial activity against Leishmania infantum MCAN/ES/89/IPZ229/1/89 promastigotes assessed as induction of cell death at 25 uM after 24 hrs by propidium iodide staining based flow cytometry; type: functional

T1 sequence (A4HSF7 whole entry): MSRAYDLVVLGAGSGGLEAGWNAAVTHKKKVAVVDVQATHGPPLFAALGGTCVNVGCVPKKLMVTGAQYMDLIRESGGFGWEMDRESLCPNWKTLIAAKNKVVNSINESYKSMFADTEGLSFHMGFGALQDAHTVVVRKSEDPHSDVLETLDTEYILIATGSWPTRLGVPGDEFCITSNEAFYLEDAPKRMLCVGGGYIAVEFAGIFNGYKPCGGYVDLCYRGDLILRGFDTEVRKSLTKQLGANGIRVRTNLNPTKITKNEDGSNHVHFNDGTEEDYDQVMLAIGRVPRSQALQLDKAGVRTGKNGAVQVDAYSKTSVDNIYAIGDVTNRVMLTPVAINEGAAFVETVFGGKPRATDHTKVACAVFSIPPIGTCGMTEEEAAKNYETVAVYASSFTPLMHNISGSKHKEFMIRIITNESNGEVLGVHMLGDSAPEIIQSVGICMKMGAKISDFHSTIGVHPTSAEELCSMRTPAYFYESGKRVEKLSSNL

| Compound | LC50 (Leishmania infantum [1]) [µM] | LC50 (Leishmania infantum [2]) [µM] | CC50 at 24 h [3] [µM] | IC50 (Trypanothione reductase [4]) [µM] | IC50 (Trypanothione reductase [5]) [µM] | Activity (Leishmania infantum [6]) | Activity (Leishmania infantum [7]) |
| --- | --- | --- | --- | --- | --- | --- | --- |
| CCCCCCCCCCCCCCCCOP(=O)([O-])OCC[N+](C)(C)C [MILTEFOSINE] | 2 | 47.6 | 19 | – | – | – | – |
| CCCCC(NC(=O)[C@H](CCCCN)NC(=O)C(CCCC)NC(=O)[C@H](CO)NC(=O)[C@@H](NC(=O)CNC(=O)[C@@H]1CCCCNC(=O)CC[C@H](NC(=O)[C@H](CCCCN)NC(=O)[C@@H]2CCCN2C(=O)[C@H](CCCNC(=N)N)NC(=O)[C@H](CCCNC(=N)N)NC(=O)[C@H](CCCNC(=N)N)NC(=O)[C@H](CCCNC(=N)N)NC(=O)[C@H](CCCNC(=N)N)NC(=O)[C@H](CCCNC(=N)N)NC(=O)[C@H](CCCNC(=N)N)NC(=O)[C@H](CCCNC(=N)N)NC(=O)[C@H](CCCNC(=N)N)NC(C)=O)C(=O)N[C@@H]([C@@H](C)CC)C(=O)N[C@@H](CCC(N)=O)C(=O)N[C@@H](CO)C(=O)N1)[C@@H](C)CC)C(N)=O (some centres undefined) (Ac-RRRRRRRRRPKEIQSKGIS[ξNle]K[ξNle]-NH2; lactam 12-16) | 2.8 | 3.5 | 2.5 | – | – | – | – |
| CCCCC(NC(=O)[C@H](CCCCN)NC(=O)[C@@H]1CCCCNC(=O)CC[C@H](NC(=O)[C@H](CO)NC(=O)[C@H](CCC(N)=O)NC(=O)[C@@H](NC(=O)[C@@H](NC(=O)[C@H](CCCCN)NC(=O)[C@@H]2CCCN2C(C)=O)[C@@H](C)CC)[C@@H](C)CC)C(=O)NCC(=O)N[C@@H]([C@@H](C)CC)C(=O)N[C@@H](CO)C(=O)N1)C(N)=O (some centres undefined) (Ac-PKIIQSEGISKK[ξNle]-NH2; lactam 7-11) | – | – | – | > 75 | > 75 | inactive | inactive |
| CC[C@H](C)[C@H](NC(=O)CNC(=O)[C@@H](NC(=O)[C@H](CO)NC(=O)[C@H](CCC(N)=O)NC(=O)[C@@H](NC(=O)[C@@H](NC(=O)[C@H](CCCCN)NC(=O)[C@@H]1CCCN1C(C)=O)[C@@H](C)CC)[C@@H](C)CC)C(C)C)C(N)=O | – | – | – | 3.7 | 20.8 | inactive | inactive |
| Ac-PKIEQSVKI-NH2 | – | – | – | 47.4 | – | inactive | inactive |
| CCCCCCCCCCCCCCCCCCOCC(COP(=O)([O-])OCC[N+](C)(C)C)OC (centres undefined) [EDELFOSINE] | 0.6 | 9 | 1 | – | – | – | – |
| CCCCC(NC(=O)[C@H](CCCCN)NC(=O)C(CCCC)NC(=O)[C@H](CO)NC(=O)[C@@H](NC(=O)CNC(=O)[C@@H]1CCCCNC(=O)CC[C@H](NC(=O)[C@H](CCCCN)NC(=O)[C@@H]2CCCN2C(=O)C(C)(C)NC(=O)[C@H](CCCNC(=N)N)NC(=O)[C@H](CCCNC(=N)N)NC(=O)C(C)(C)NC(=O)[C@H](CCCNC(=N)N)NC(=O)[C@H](CCCNC(=N)N)NC(=O)C(C)(C)NC(=O)[C@H](CCCNC(=N)N)NC(=O)[C@H](CCCNC(=N)N)NC(C)=O)C(=O)N[C@@H]([C@@H](C)CC)C(=O)NC(CCC(N)=O)C(=O)N[C@@H](CO)C(=O)N1)[C@@H](C)CC)C(N)=O (some centres undefined) (Ac-RR[Aib]RR[Aib]RR[Aib]PKEI[ξQ]SKGIS[ξNle]K[ξNle]-NH2; lactam 12-16) | 10.4 | 6.4 | 5.2 | – | – | – | – |
| CC[C@H](C)[C@H](NC(=O)[C@@H]1CCCCNC(=O)CC[C@H](NC(=O)[C@@H](NC(=O)[C@H](CCCCN)NC(=O)[C@@H]2CCCN2C(C)=O)[C@@H](C)CC)C(=O)N[C@@H](CCC(N)=O)C(=O)NC(CO)C(=O)N[C@@H](C(C)C)C(=O)N1)C(N)=O (single isomer, unassigned) | – | – | – | > 75 | > 75 | inactive | inactive |
| CCCCC(NC(=O)[C@H](CCCCN)NC(=O)C(CCCC)NC(=O)[C@H](CO)NC(=O)[C@@H](NC(=O)CNC(=O)[C@@H](NC(=O)[C@H](CO)NC(=O)[C@H](CCC(N)=O)NC(=O)[C@@H](NC(=O)[C@@H](NC(=O)[C@H](CCCCN)NC(=O)[C@@H]1CCCN1C(=O)[C@H](CCCNC(=N)N)NC(=O)[C@H](CCCNC(=N)N)NC(=O)[C@H](CCCNC(=N)N)NC(=O)[C@H](CCCNC(=N)N)NC(=O)[C@H](CCCNC(=N)N)NC(=O)[C@H](CCCNC(=N)N)NC(=O)[C@H](CCCNC(=N)N)NC(=O)[C@H](CCCNC(=N)N)NC(=O)[C@H](CCCNC(=N)N)NC(C)=O)[C@@H](C)CC)[C@@H](C)CC)C(C)C)[C@@H](C)CC)C(N)=O (some centres undefined) (Ac-RRRRRRRRRPKIIQSVGIS[ξNle]K[ξNle]-NH2) | 3.5 | 4.6 | 1.7 | – | – | – | – |
| CCCCC(NC(=O)[C@H](CCCCN)NC(=O)[C@H](CCCCN)NC(=O)[C@H](CO)NC(=O)[C@@H](NC(=O)CNC(=O)[C@H](CCC(=O)O)NC(=O)[C@H](CO)NC(=O)[C@H](CCC(N)=O)NC(=O)[C@@H](NC(=O)[C@@H](NC(=O)[C@H](CCCCN)NC(=O)[C@@H]1CCCN1C(C)=O)[C@@H](C)CC)[C@@H](C)CC)[C@@H](C)CC)C(N)=O (some centres undefined) (Ac-PKIIQSEGISKK[ξNle]-NH2) | – | – | – | > 75 | – | inactive | inactive |
| Ac-RRRRRRRRRKMGISSMVQPKII-NH2 | > 25 | > 25 | > 25 | – | – | – | – |
| CCCCC(NC(=O)[C@H](CCCCN)NC(=O)C(CCCC)NC(=O)[C@H](CO)NC(=O)[C@@H](NC(=O)[C@H](CCCCN)NC(=O)[C@@H](NC(=O)[C@H](CO)NC(=O)[C@H](CCC(N)=O)NC(=O)[C@H](CCC(=O)O)NC(=O)[C@@H](NC(=O)[C@H](CCCCN)NC(=O)[C@@H]1CCCN1C(C)=O)[C@@H](C)CC)C(C)C)[C@@H](C)CC)C(N)=O (some centres undefined) (Ac-PKIEQSVKIS[ξNle]K[ξNle]-NH2) | – | – | – | > 75 | – | inactive | inactive |
| CCCCC(NC(=O)[C@H](CCCCN)NC(=O)C(CCCC)NC(=O)[C@H](CO)NC(=O)[C@@H](NC(=O)CNC(=O)[C@H](CCCCN)NC(=O)[C@H](CO)NC(=O)[C@H](CCC(N)=O)NC(=O)[C@@H](NC(=O)[C@H](CCC(=O)O)NC(=O)[C@H](CCCCN)NC(=O)[C@@H]1CCCN1C(C)=O)[C@@H](C)CC)[C@@H](C)CC)C(N)=O (some centres undefined) (Ac-PKEIQSKGIS[ξNle]K[ξNle]-NH2) | – | – | – | > 75 | – | inactive | inactive |
| CCCCC(NC(=O)[C@H](CCCCN)NC(=O)C(CCCC)NC(=O)[C@H](CO)NC(=O)[C@@H](NC(=O)CNC(=O)[C@@H](NC(=O)[C@H](CO)NC(=O)[C@H](CCC(N)=O)NC(=O)[C@@H](NC(=O)[C@@H](NC(=O)[C@H](CCCCN)NC(=O)[C@@H]1CCCN1C(C)=O)[C@@H](C)CC)[C@@H](C)CC)C(C)C)[C@@H](C)CC)C(=O)N[C@@H](CCCNC(=N)N)C(=O)N[C@@H](CCCNC(=N)N)C(=O)N[C@@H](CCCNC(=N)N)C(=O)N[C@@H](CCCNC(=N)N)C(=O)N[C@@H](CCCNC(=N)N)C(=O)N[C@@H](CCCNC(=N)N)C(=O)N[C@@H](CCCNC(=N)N)C(=O)N[C@@H](CCCNC(=N)N)C(=O)N[C@@H](CCCNC(=N)N)C(N)=O (some centres undefined) | 2.1 | 4.4 | 0.8 | – | – | – | – |
| CC[C@H](C)[C@H](NC(=O)CNC(=O)[C@@H]1CCCCNC(=O)CC[C@H](NC(=O)[C@H](CCCCN)NC(=O)[C@@H]2CCCN2C(C)=O)C(=O)N[C@@H]([C@@H](C)CC)C(=O)N[C@@H](CCC(N)=O)C(=O)N[C@@H](CO)C(=O)N1)C(N)=O (Ac-PKEIQSKGI-NH2; lactam 3-7) | – | – | – | > 75 | > 75 | inactive | inactive |
| CCCCC(NC(=O)[C@H](CCCCN)NC(=O)C(CCCC)NC(=O)[C@H](CO)NC(=O)[C@@H](NC(=O)CNC(=O)[C@@H](NC(=O)[C@H](CO)NC(=O)[C@H](CCC(N)=O)NC(=O)[C@@H](NC(=O)[C@@H](NC(=O)[C@H](CCCCN)NC(=O)[C@@H]1CCCN1C(=O)[C@H](CCC(N)=O)NC(=O)[C@@H]1CCCN1C(=O)[C@@H]1CCCN1C(=O)[C@H](CCCNC(=N)N)NC(=O)[C@H](CCCNC(=N)N)NC(=O)[C@H](CCCNC(=N)N)NC(=O)[C@H](CCC(N)=O)NC(=O)[C@H](CCCNC(=N)N)NC(=O)[C@H](CCCNC(=N)N)NC(=O)[C@H](CCCCN)NC(=O)[C@H](CCCCN)NC(=O)[C@H](CCCNC(=N)N)NC(=O)CNC(C)=O)[C@@H](C)CC)[C@@H](C)CC)C(C)C)[C@@H](C)CC)C(N)=O (some centres undefined) (Ac-GRKKRRQRRRPPQPKIIQSVGIS[ξNle]K[ξNle]-NH2) | 1.5 | 4.3 | 1.2 | – | – | – | – |
| CCCCC(NC(=O)[C@H](CCCCN)NC(=O)C(CCCC)NC(=O)[C@H](CO)NC(=O)[C@@H](NC(=O)[C@H](CCC(=O)O)NC(=O)[C@@H](NC(=O)[C@H](CO)NC(=O)[C@H](CCC(N)=O)NC(=O)[C@@H](NC(=O)[C@@H](NC(=O)[C@H](CCCCN)NC(=O)[C@@H]1CCCN1C(C)=O)[C@@H](C)CC)[C@@H](C)CC)C(C)C)[C@@H](C)CC)C(N)=O (some centres undefined) | – | – | – | > 75 | – | inactive | inactive |
| CC(=O)NCC(=O)N[C@@H](CCCNC(=N)N)C(=O)N[C@@H](CCCCN)C(=O)N[C@@H](CCCCN)C(=O)N[C@@H](CCCNC(=N)N)C(=O)N[C@@H](CCCNC(=N)N)C(=O)N[C@@H](CCC(N)=O)C(=O)N[C@@H](CCCNC(=N)N)C(=O)N[C@@H](CCCNC(=N)N)C(=O)N[C@@H](CCCNC(=N)N)C(=O)N1CCC[C@H]1C(=O)N1CCC[C@H]1C(=O)N[C@@H](CCC(N)=O)C(N)=O | > 25 | > 25 | > 25 | – | – | – | – |
| Ac-PKEIQSKGI-NH2 | – | – | – | > 75 | – | inactive | inactive |
| CC(=O)N[C@@H](CCCNC(=N)N)C(=O)N[C@@H](CCCNC(=N)N)C(=O)N[C@@H](CCCNC(=N)N)C(=O)N[C@@H](CCCNC(=N)N)C(=O)N[C@@H](CCCNC(=N)N)C(=O)N[C@@H](CCCNC(=N)N)C(=O)N[C@@H](CCCNC(=N)N)C(=O)N[C@@H](CCCNC(=N)N)C(=O)N[C@@H](CCCNC(=N)N)C(N)=O | > 25 | > 25 | > 25 | – | – | – | – |

From ChEMBL document CHEMBL4052619, “First example of peptides targeting the dimer interface of Leishmania infantum trypanothione reductase with potent in vitro antileishmanial activity” (Eur J Med Chem, 2017)
